The source made the active and inactive calls. Rule as the data show it, for most assays here: actives have a measured Kd and inactives only a lower limit.
How the values were obtained:
[1] = biological target: T1, Calcium/calmodulin-dependent protein kinase type IV (Homo sapiens, UniProt Q16566)
T1 sequence (Q16566 whole entry): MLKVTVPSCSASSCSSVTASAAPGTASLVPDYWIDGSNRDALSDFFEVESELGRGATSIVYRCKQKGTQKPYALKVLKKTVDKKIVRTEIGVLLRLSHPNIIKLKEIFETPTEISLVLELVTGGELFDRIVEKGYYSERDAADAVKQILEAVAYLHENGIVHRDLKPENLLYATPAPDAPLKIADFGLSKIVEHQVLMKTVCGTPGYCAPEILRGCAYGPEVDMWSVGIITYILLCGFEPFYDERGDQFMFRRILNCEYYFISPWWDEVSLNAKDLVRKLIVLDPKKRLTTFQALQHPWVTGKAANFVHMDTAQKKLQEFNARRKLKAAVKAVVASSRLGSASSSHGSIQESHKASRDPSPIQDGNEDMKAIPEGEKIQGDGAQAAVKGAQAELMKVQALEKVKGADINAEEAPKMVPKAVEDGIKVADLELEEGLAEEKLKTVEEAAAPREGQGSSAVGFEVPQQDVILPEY

[2] = biological target: T2, ATP-dependent RNA helicase DDX42 (Homo sapiens, UniProt Q86XP3)
T2 sequence (Q86XP3 whole entry): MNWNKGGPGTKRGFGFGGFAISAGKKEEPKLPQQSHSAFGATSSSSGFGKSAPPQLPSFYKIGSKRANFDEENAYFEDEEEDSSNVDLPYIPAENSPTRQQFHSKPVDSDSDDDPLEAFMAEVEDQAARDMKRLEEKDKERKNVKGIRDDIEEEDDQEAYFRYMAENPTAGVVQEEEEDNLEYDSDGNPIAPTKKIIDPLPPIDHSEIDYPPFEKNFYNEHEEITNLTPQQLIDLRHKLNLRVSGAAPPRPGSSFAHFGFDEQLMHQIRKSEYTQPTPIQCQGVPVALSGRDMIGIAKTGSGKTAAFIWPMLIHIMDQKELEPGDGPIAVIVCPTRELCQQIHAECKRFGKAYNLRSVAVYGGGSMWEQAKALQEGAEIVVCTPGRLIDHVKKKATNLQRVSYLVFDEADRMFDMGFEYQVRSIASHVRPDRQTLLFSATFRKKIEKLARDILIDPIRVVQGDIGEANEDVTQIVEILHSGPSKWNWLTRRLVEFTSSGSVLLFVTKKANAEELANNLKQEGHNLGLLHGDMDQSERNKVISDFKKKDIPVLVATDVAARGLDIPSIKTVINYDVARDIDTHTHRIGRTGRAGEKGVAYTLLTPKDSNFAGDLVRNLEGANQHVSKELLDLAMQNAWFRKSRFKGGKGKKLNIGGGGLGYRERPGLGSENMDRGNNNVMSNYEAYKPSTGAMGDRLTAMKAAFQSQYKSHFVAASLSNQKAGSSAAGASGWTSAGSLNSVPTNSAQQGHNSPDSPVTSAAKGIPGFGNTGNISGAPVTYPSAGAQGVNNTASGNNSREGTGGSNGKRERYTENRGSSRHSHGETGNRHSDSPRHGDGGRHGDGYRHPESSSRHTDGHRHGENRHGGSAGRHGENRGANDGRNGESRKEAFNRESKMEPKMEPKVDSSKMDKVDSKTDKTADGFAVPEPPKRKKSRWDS

[3] = biological target: Tyrosine-protein kinase Yes (Homo sapiens, UniProt P07947)
Tyrosine-protein kinase Yes, sequence (P07947 whole entry): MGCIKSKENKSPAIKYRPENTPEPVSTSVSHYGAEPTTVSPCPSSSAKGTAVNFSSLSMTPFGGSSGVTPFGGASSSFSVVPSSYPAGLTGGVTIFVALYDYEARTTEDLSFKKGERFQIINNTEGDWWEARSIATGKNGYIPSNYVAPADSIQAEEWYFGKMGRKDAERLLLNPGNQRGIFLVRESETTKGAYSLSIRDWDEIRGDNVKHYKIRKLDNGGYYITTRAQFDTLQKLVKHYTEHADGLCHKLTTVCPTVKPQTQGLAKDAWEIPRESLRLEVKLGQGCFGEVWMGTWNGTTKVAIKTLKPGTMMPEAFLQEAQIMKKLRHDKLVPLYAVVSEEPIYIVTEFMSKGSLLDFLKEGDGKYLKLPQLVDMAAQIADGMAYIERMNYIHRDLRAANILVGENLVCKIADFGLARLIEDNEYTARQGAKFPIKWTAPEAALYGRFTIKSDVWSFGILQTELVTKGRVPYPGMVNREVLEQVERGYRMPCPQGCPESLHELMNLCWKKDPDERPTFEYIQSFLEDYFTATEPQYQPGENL

[4] = biological target: T3, Ferrochelatase, mitochondrial (Homo sapiens, UniProt P22830)
T3 sequence (P22830 whole entry): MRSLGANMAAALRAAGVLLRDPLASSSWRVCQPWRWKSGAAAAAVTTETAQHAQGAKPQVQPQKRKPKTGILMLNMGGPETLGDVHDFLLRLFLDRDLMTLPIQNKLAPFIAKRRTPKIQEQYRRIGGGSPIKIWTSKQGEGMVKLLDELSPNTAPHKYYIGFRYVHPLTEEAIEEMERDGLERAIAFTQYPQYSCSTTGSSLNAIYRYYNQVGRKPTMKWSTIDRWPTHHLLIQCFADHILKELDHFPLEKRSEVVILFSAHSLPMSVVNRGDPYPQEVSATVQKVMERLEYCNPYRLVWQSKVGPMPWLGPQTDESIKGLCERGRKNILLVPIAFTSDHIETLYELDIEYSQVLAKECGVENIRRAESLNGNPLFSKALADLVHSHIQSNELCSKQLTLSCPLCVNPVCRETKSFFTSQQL

[5] = biological target: Platelet-derived growth factor receptor beta (Homo sapiens, UniProt P09619)
Platelet-derived growth factor receptor beta, sequence (P09619 whole entry): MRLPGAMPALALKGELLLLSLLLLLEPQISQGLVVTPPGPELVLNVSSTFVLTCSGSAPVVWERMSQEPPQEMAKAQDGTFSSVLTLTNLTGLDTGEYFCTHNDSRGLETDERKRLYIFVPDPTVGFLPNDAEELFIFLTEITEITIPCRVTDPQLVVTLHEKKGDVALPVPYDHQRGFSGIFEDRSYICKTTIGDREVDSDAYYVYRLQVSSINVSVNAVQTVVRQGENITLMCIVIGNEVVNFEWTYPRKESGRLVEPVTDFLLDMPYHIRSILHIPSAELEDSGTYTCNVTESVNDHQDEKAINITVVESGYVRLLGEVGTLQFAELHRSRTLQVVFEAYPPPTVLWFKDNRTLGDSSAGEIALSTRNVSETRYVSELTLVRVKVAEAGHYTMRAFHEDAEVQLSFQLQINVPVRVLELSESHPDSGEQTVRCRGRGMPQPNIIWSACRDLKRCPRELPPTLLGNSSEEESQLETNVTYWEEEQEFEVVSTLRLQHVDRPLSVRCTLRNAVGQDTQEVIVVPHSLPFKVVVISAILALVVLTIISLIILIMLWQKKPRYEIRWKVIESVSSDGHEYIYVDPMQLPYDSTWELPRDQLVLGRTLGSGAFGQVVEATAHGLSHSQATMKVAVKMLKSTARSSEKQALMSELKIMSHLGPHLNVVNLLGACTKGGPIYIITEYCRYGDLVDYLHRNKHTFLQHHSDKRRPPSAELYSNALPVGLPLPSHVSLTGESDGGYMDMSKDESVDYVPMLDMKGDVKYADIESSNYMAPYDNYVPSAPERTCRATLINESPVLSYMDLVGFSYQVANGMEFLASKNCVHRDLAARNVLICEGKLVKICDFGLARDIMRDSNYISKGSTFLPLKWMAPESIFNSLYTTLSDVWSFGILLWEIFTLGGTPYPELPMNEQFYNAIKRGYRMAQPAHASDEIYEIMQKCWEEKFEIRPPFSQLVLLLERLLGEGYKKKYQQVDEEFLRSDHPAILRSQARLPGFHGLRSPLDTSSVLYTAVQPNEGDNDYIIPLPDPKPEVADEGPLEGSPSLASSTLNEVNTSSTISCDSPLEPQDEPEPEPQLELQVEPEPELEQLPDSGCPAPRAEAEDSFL

[6] = biological target: Protein-tyrosine kinase 6 (Homo sapiens, UniProt Q13882)
Protein-tyrosine kinase 6, sequence (Q13882 whole entry): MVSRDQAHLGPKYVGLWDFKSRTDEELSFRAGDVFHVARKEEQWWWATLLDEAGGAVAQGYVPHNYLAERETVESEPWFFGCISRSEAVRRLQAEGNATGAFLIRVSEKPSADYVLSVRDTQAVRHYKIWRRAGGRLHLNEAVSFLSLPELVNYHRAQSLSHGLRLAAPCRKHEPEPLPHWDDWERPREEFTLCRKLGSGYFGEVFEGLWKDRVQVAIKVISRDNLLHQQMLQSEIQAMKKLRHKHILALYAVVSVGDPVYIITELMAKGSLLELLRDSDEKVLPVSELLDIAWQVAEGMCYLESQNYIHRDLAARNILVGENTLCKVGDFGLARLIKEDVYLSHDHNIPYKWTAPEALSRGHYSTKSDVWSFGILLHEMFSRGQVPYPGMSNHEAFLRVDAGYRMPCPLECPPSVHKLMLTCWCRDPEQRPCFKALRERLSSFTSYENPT

Ephrin type-B receptor 6 = biological target: T4, Ephrin type-B receptor 6 (Homo sapiens, UniProt O15197)
T4 sequence (O15197 whole entry): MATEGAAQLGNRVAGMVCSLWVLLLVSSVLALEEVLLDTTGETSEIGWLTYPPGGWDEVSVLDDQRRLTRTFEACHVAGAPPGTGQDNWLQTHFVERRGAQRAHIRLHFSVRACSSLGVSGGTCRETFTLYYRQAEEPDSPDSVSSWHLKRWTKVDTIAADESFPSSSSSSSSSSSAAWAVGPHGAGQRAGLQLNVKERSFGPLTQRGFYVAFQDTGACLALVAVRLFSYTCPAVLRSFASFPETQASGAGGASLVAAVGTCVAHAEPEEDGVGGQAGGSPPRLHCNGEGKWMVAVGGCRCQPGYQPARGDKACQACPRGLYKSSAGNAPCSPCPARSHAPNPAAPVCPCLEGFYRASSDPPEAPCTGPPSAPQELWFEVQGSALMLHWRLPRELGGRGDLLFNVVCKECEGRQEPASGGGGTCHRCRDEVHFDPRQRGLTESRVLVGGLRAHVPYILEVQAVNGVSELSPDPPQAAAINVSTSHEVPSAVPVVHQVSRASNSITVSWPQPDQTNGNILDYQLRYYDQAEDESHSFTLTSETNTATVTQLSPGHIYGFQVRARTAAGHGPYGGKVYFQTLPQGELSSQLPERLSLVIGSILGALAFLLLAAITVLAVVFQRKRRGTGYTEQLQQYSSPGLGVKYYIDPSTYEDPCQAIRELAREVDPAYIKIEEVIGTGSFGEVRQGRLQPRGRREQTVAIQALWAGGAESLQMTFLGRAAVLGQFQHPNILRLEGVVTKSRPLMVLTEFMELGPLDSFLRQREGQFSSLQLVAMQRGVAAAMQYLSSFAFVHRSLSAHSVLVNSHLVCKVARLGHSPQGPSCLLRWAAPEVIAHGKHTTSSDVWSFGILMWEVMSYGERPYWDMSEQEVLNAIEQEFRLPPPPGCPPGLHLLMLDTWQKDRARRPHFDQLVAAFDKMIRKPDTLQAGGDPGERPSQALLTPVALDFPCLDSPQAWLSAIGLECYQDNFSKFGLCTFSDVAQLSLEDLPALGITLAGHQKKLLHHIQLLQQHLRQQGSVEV
Also: in the data inactive means no Kd found up to 30 µM.

Kd [1]	Kd [2]	Kd [3]	Kd [4]	Kd [5]	Kd [6]	Kd (Ephrin type-B receptor 6)	Structure (SMILES)
> 30 µM (inactive)	> 30 µM (inactive)	> 30 µM (inactive)	> 30 µM (inactive)	3.13 µM (active)	> 30 µM (inactive)	> 30 µM (inactive)	Cc1ccc(NC(=O)c2ccc(CN3CC[C@H](N(C)C)C3)c(C(F)(F)F)c2)cc1Nc1nccc(-c2cncnc2)n1 [BAFETINIB]
> 30 µM (inactive)	> 30 µM (inactive)	> 30 µM (inactive)	> 30 µM (inactive)	> 30 µM (inactive)	0.841 µM (active)	> 30 µM (inactive)	O=C(O)[C@]1(Cc2cccc(Nc3nccs3)n2)CC[C@@H](Oc2cccc(Cl)c2F)CC1 [MK-5108]
> 30 µM (inactive)	> 30 µM (inactive)	> 30 µM (inactive)	> 30 µM (inactive)	> 30 µM (inactive)	> 30 µM (inactive)	> 30 µM (inactive)	CNC(=O)c1ccc(-c2cnc3ncc(Cc4ccc5ncccc5c4)n3n2)cc1F [CAPMATINIB]

More lines, now with the values behind:

Structure (SMILES)	Kd [1]	Kd [2]	Kd [3]	Kd [4]	Kd [5]	Kd [6]	Kd (Ephrin type-B receptor 6)
CNC(=O)c1ccc(C)c(-n2c(C)cc(OCc3ccc(F)cc3F)c(Br)c2=O)c1 [PH-797804]	> 30 µM (inactive)	> 30 µM (inactive)	> 30 µM (inactive)	> 30 µM (inactive)	> 30 µM (inactive)	> 30 µM (inactive)	> 30 µM (inactive)
COC(=O)[C@@]1(O)C[C@H]2O[C@]1(C)n1c3ccccc3c3c4c(c5c6ccccc6n2c5c31)C(=O)NC4 [K-252A]	> 30 µM (inactive)	> 30 µM (inactive)	> 30 µM (inactive)	> 30 µM (inactive)	1.01 µM (active)	> 30 µM (inactive)	> 30 µM (inactive)
COc1ccc(-c2ccc3c(N4CCOC[C@@H]4C)nc(N4CCOC[C@@H]4C)nc3n2)cc1CO [AZD-8055]	> 30 µM (inactive)	> 30 µM (inactive)	> 30 µM (inactive)	6.9 µM (active)	> 30 µM (inactive)	> 30 µM (inactive)	> 30 µM (inactive)
Cc1ccc(-n2nc(C(C)(C)C)cc2NC(=O)NCc2cc(F)ccc2Oc2ccc3c(cnn3CCO)c2)cc1 [PEXMETINIB]	> 30 µM (inactive)	> 30 µM (inactive)	> 30 µM (inactive)	> 30 µM (inactive)	> 30 µM (inactive)	> 30 µM (inactive)	> 30 µM (inactive)

— ChEMBL document CHEMBL3991601, “The target landscape of clinical kinase drugs” (Science, 2017)
